Assay [1] deals with HuPrime® gastric cancer GA3055 subcutaneous xenograft model. Put plainly: In vivo drug efficacy in HuPrime gastric cancer GA3055 subcutaneous xenograft model. Also noted: species or system female BALB/C nude mice. To be noted: BID. The source says:
• GA3055 tumor-bearing mice were provided by Crown Bioscience (Taicang) Co., Ltd.
Tumor tissue was collected from tumor-bearing mice of the HuPrime® gastric cancer GA3055 xenograft model, and cut into tumor pieces with a diameter of 2 to 3 mm for subcutaneous inoculation in the right anterior scapular region of BALB/c nude mice. When the average tumor volume in the tumor-bearing mice reached approximately 150 mm^3, the mice were randomly grouped. The coefficient of variation (CV) of the tumor volume within each group was calculated using the formula CV=SD/MTV×100%, and should be less than 30%. Administration started on the day of grouping (the tumor volume was measured on the day of grouping). The day of grouping was defined as day 0.
Before the start of administration, all animals were weighed and the tumor volume was measured using a caliper. Given that the volume of the tumor could affect the effectiveness of the treatment, a random grouping design method was used. The mice were grouped based on the volume of their tumors to ensure similar tumor volumes across different groups. Grouping was done using StudyDirector™ (version 3.1.399.19, supplier: Studylog System, Inc., S. San Francisco, CA, USA).
The “Matched distribution” random grouping method was chosen for grouping, which could reflect the smallest intergroup differences at the tumor volume level. This algorithm matched the individual measurements of all selected animals with the average value of all selected animals. Firstly, those paired animals whose average values were close to the average value of all selected animals were chosen, and then they were allocated to groups so that the average value of the group matched (or was as close as possible to) the average value of all selected animals. The final average value of the measurements of each group was as close as possible to the final average value of the other groups.
After the inoculation of tumor cells, routine monitoring included the growth of the tumor and the impact of the treatment on the normal behavior of the animals. Specific content included the activity of the experimental animals, food and water intake, weight gain or loss, and any abnormalities in their eyes, fur, and other conditions. Any clinical symptoms observed during the experiment were recorded in the original data. After the start of administration, the weight of the mice and the size of the tumor were measured twice a week. […] The original data was directly imported into the software after being measured by a balance and caliper, and any changes in the data were recorded in this software. […]
All experimental results were expressed as the mean tumor volume±SEM (standard error of the mean). […] All data were analyzed using SPSS 18.0. […]

For the next assay, the system named is Capan-2 cells. Kind of assay: Capan-2 cell anti-proliferative activity test. In kind it is cell-based. To be noted: Homo sapiens, Capan-2, 120 h; 5 days, CellTiter-Glo. The method, then: Capan-2 cells were provided by Wuhan Heyan Biomedical Technology Co., Ltd., and CellTiter-Glo was purchased from Promega.
Capan-2 cells were seeded in a white 96-well plate, with 80 μL of cell suspension per well, each containing 5,000 Capan-2 cells. The cell plate was placed in a carbon dioxide incubator for overnight culture.
The test compounds were 3-fold diluted with a multi-channel pipette to the 9th concentration, i.e., diluted from 200 μM to 30 nM, and duplicate experiment was set. 78 μL of culture medium was added to an intermediate plate, and then 2 μL of gradient diluted compound per well was transferred to the intermediate plate according to the corresponding position. After mixing well, the compound was transferred to the cell plate at 20 μL per well. The cell plate was placed in a carbon dioxide incubator and cultured for 5 days. Another cell plate was prepared, and the signal value was read on the day of drug administration to serve as the maximum value (Max value in the equation below) for data analysis. 25 μL of cell viability chemiluminescence detection reagent was added to each well of this cell plate, and it was incubated at room temperature for 10 minutes to stabilize the luminescent signal. A multimode microplate reader was used for reading.
After the cell plate was cultured for 5 days, 25 μL of Promega CellTiter-Glo reagent was added to each well of the cell plate, and it was incubated at room temperature for 10 minutes to stabilize the luminescent signal. A multimode microplate reader was used for reading.
The IC50 value could be obtained through curve fitting, and the results of the inhibitory activity of the compounds of the present disclosure on the proliferation of Capan-2 cells are shown in Table 11.

For orientation: IC50 means the concentration that gives 50% inhibition. A higher IC50 goes with weaker potency in that assay. In assay [1] (5 mg/Kg, 37 days), `Cn1cc(-c2cnc(CNc3nccn4c(-c5cc(F)cc(F)c5)cnc34)cn2)ccc1=O` [Compound 2] displayed a T/C % of 12.97% and a TGI % of 94.6%. Besides, in assay [1] (10 mg/Kg), the T/C % is 10.89% and the TGI % was 96.8%. The same molecule returned an IC50 in the assay on Capan-2 cells of 6.07 nM.
